Test results reported in US12492193B2, “Pyrazole derivatives for the treatment of cystic fibrosis” (Fondazione Istituto Italiano Di Tecnologia, priority 2017, dated 2025).

Legend:
[1] = biological target: F508del-CFTR (Homo sapiens, UniProt P13569, DEL508-508); experiment: Short-circuit current recordings on human bronchial epithelial cells (F508del/F508del); assay type: cell-based; parameters: Human bronchial epithelial (HBE) cells obtained from CF patients (F508del/F508del genotype); endogenous in cells; host or cells: primary human bronchial epithelial cells from CF patients, F508del/F508del; conditions: HBE cells from CF patients (F508del/F508del), 24 hrs treatment; table 3
Sequence of F508del-CFTR (P13569 with tags, fused parts or gaps DEL508-508): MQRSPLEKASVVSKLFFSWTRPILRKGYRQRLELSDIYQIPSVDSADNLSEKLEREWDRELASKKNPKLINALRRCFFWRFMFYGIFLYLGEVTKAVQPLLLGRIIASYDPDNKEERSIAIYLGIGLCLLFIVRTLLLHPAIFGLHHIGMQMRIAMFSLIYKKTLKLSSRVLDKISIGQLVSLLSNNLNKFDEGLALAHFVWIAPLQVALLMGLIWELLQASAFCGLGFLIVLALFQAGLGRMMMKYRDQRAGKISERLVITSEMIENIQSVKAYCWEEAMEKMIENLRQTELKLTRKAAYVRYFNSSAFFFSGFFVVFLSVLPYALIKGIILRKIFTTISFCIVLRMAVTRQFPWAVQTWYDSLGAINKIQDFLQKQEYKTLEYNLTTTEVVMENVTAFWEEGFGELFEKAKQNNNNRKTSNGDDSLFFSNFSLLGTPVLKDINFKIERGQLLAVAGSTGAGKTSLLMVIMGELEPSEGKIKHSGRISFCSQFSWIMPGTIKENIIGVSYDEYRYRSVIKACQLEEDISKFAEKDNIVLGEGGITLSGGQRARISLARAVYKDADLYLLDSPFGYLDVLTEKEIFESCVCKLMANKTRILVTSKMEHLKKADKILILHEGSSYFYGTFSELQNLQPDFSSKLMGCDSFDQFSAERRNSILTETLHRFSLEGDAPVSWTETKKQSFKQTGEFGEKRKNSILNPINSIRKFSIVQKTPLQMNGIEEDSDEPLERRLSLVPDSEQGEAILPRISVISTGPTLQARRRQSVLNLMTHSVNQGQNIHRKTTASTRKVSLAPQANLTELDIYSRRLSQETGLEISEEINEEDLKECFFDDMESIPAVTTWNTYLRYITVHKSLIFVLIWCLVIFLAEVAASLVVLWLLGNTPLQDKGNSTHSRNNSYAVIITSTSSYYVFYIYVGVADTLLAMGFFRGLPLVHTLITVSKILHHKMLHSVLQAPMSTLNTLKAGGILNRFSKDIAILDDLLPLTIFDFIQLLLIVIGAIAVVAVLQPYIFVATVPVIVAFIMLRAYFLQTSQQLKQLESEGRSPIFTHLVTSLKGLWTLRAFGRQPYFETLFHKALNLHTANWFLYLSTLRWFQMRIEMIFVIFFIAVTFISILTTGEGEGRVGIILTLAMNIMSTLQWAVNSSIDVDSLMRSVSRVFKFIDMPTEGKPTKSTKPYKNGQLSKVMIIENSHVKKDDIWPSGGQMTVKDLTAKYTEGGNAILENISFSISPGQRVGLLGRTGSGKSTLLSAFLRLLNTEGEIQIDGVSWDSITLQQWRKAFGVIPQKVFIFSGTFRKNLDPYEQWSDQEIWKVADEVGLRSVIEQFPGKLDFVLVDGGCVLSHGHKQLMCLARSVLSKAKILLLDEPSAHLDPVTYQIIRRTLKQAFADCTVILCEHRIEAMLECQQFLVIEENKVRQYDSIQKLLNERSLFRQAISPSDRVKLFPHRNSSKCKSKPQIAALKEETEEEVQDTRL
Protocol: Short-Circuit Current Recordings on Human Bronchial Epithelial Cells
Human bronchial epithelial (HBE) cells obtained from CF patients (F508del/F508del genotype) were plated on Snapwell inserts (Code 3801, Corning Life Sciences) at a density of 500,000 cells per insert. Cells were cultured for two weeks in a differentiating medium whose compositions has been previously described (Scudieri et al., J Physiol 590:6141-6155, 2012). For the first week, the medium was kept on both apical and basolateral sides of inserts (submerged condition). For the second week, the apical medium was removed (air-liquid condition, ALC). To test the activity of correctors, cells were treated for 24 hrs with compounds dissolved in the basolateral medium. After treatment, Snapwell inserts carrying differentiated bronchial epithelia were mounted in a vertical chamber resembling an Ussing system with internal fluid circulation. Both apical and basolateral hemichambers were filled with 5 mL of a Krebs bicarbonate solution containing (in mM): 126 NaCl, 0.38 KH2PO4, 2.13 K2HPO4, 1 MgSO4, 1 CaCl2), 24 NaHCO3, and 10 glucose. Both sides were continuously bubbled with a gas mixture containing 5% CO2-95% air and the temperature of the solution was kept at 37° C. The transepithelial voltage was short-circuited with a voltage-clamp (DVC-1000, World Precision Instruments) connected to the apical and basolateral chambers via Ag/AgCl electrodes and agar bridges (1 M KCl in 1% agar). The offset between voltage electrodes and the fluid resistance were canceled before experiments. The short-circuit current was recorded with a PowerLab 4/25 (ADInstruments) analogical to digital converter connected to a Macintosh computer. […] The difference between the current measured with CPT-cAMP plus potentiator and the current remaining after CFTRinh-172 treatment (ΔICFTR) was taken as the parameter reflecting F508del-CFTR expression in the apical membrane.
Activities of selected compounds on HBE cells (expressed as ΔICFTR) are illustrated in table 3 wherein +: ΔICFTR<2.0 μA; ++: 2.0 μA<ΔICFTR<3.0 μA; +++: ΔICFTR>3.0 μA.

[2] = biological target: T1, mutant CFTR (Homo sapiens, UniProt P13569, DEL508-508); experiment: Fluorescence (HS-YFP) assay for CFTR activity, corrector assay; assay type: cell-based; conditions: CFBE41o- and FRT cells with stable expression of mutant CFTR, 24 h compound treatment
T1 construct: expressed in transfected cells
T1 sequence (P13569 with tags, fused parts or gaps DEL508-508): as above
Summary of the method: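 Corrector activity: 24 h compound treatment of HS-YFP/mutant-CFTR CFBE41o- or FRT cells, followed by 30 min forskolin 20 μM + genistein 50 μM at 37° C. Iodide influx (100 mM final) was tracked as fluorescence quenching, with dF/dt extrapolated by exponential fitting; EC50 values derived.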

| activity on HBE cells (ΔICFTR) [1] | EC50 [2] [nM] | SMILES |
| --- | --- | --- |
| ++ (2.0 μA<ΔICFTR<3.0 μA) | < 1000 | Cc1nn(-c2cccc(C(=O)N(C)c3ccc4c(c3)OCO4)c2)c(COc2ccc(C(=O)O)cc2)c1Cl [compound 144, 4-[[2-[3-[1,3-Benzodioxol-5-yl(methyl)carbamoyl]phenyl]-4-chloro-5-methyl-pyrazol-3-yl]methoxy]benzoic acid] |
|  | > 2000 | Cc1nn(-c2cccc(C(=O)N(C)c3ccc4c(c3)ncn4C)c2)c(C)c1Cl [compound 024, 3-(4-Chloro-3,5-dimethyl-pyrazol-1-yl)-N-methyl-N-(1-methylbenzimidazol-5-yl)benzamide] |
|  | > 2000 | Cc1nc2ccc(NC(=O)c3cccc(-n4nc(C)c(Cl)c4C)c3)cc2o1 [Int-045, 3-(4-Chloro-3,5-dimethyl-pyrazol-1-yl)-N-(2-methyl-1,3-benzoxazol-6-yl)benzamide] |
|  | 1000 to 2000 | Cc1cc2c(cc1N(C)C(=O)c1cccc(-n3nc(C)c(Cl)c3C)c1)OCO2 [compound 042, 3-(4-chloro-3,5-dimethyl-pyrazol-1-yl)-N-methyl-N-(6-methyl-1,3-benzodioxol-5-yl)benzamide] |
|  | > 2000 | Cc1nc2cc(N(C)C(=O)c3cccc(-n4nc(C)c(Cl)c4C)c3)ccc2o1 [compound 025, 3-(4-Chloro-3,5-dimethyl-pyrazol-1-yl)-N-methyl-N-(2-methyl-1,3-benzoxazol-5-yl)benzamide] |
|  | < 1000 | Cc1nc2cc(F)c(N(C)C(=O)c3cccc(-n4nc(C(F)(F)F)cc4OCc4ccc(C(=O)OC(C)(C)C)cc4)c3)cc2o1 [compound 189, Tert-butyl 4-[[2-[3-[(5-fluoro-2-methyl-1,3-benzoxazol-6-yl)-methyl-carbamoyl]phenyl]-5-(trifluoromethyl)pyrazol-3-yl]oxymethyl]benzoate] |
|  | < 1000 | CN(C(=O)c1cccc(-n2nc(C(F)(F)F)cc2-c2cccs2)c1)c1ccc2c(c1)OCO2 [compound 166, N-(1,3-Benzodioxol-5-yl)-N-methyl-3-[5-(2-thienyl)-3-(trifluoromethyl)pyrazol-1-yl]benzamide] |
|  | < 1000 | [2H]C([2H])([2H])N(C(=O)c1cccc(-n2nc(C(F)(F)F)c(Cl)c2COc2ccc(C(=O)O)cc2)c1)c1ccc2c(c1)OC(F)(F)O2 [compound 182, 4-[[4-Chloro-2-[3-[(2,2-difluoro-1,3-benzodioxol-5-yl)-(trideuteriomethyl)carbamoyl]phenyl]-5-(trifluoromethyl)pyrazol-3-yl]methoxy]benzoic acid] |
|  | < 1000 | Cc1nnc(-c2c(Cl)c(C)nn2-c2cccc(C(=O)N(C)c3ccc4c(c3)OCO4)c2)o1 [compound 129, N-(1,3-Benzodioxol-5-yl)-3-[4-chloro-3-methyl-5-(5-methyl-1,3,4-oxadiazol-2-yl)pyrazol-1-yl]-N-methyl-benzamide] |
|  | < 1000 | CCN(C(=O)c1cccc(-n2nc(C(F)(F)F)c(Cl)c2C2CC2)c1)c1ccc2nc(C)oc2c1 [compound 135, 3-[4-Chloro-5-cyclopropyl-3-(trifluoromethyl)pyrazol-1-yl]-N-ethyl-N-(2-methyl-1,3-benzoxazol-6-yl)benzamide] |
|  | < 1000 | CCN(C(=O)c1cccc(-n2nc(C)c(Cl)c2C)c1)c1ccc2c(c1)OCCO2 [compound 004, 3-(4-Chloro-3,5-dimethyl-pyrazol-1-yl)-N-(2,3-dihydro-1,4-benzodioxin-6-yl)-N-ethyl-benzamide] |
|  | > 2000 | Cc1c(Cl)c(C(F)(F)F)nn1-c1cccc(C(=O)Nc2ccc3c(c2C(=O)O)OCO3)c1 [compound 205, 5-[[3-[4-chloro-5-methyl-3-(trifluoromethyl)pyrazol-1-yl]benzoyl]amino]-1,3-benzodioxole-4-carboxylic acid] |
|  | < 1000 | CN(C(=O)c1cccc(-n2nc(C(F)(F)F)c(Cl)c2CO)c1)c1ccc2c(c1)OC(F)(F)O2 [compound 217, 3-[4-Chloro-5-(hydroxymethyl)-3-(trifluoromethyl)pyrazol-1-yl]-N-(2,2-difluoro-1,3-benzodioxol-5-yl)-N-methyl-benzamide] |
|  | > 2000 | Cc1c(Cl)c(C(F)(F)F)nn1-c1cccc(C(=O)N(C)c2ccc3c(c2C=O)OCO3)c1 [compound 207, 3-[4-chloro-5-methyl-3-(trifluoromethyl)pyrazol-1-yl]-N-(4-formyl-1,3-benzodioxol-5-yl)-N-methyl-benzamide] |
|  | > 2000 | CN(C(=O)c1cccc(-n2nc(C(F)(F)F)c(C#N)c2Oc2ccc(C(=O)O)cc2)c1)c1ccc2c(c1)OCO2 [compound 210, 4-[2-[3-[1,3-Benzodioxol-5-yl(methyl)carbamoyl]phenyl]-4-cyano-5-(trifluoromethyl)pyrazol-3-yl]oxybenzoic acid] |
|  | > 2000 | Cc1cc(C)n(-c2cccc(C(=O)N(C)c3ccc4c(c3)OCCO4)c2)n1 [compound 011, N-(2,3-Dihydro-1,4-benzodioxin-6-yl)-3-(3,5-dimethylpyrazol-1-yl)-N-methyl-benzamide] |
|  | > 2000 | Cc1cc2c(cc1NC(=O)c1cccc(-n3nc(C)c(Cl)c3C)c1)OCO2 [Int-041, 3-(4-Chloro-3,5-dimethyl-pyrazol-1-yl)-N-(6-methyl-1,3-benzodioxol-5-yl)benzamide] |
|  | 1000 to 2000 | Cc1nn(-c2cccc(C(=O)N(C)c3ccc4c(c3)OCO4)c2)c(COc2cccc(C(=O)O)c2)c1Cl [compound 143, 3-[[2-[3-[1,3-Benzodioxol-5-yl(methyl)carbamoyl]phenyl]-4-chloro-5-methyl-pyrazol-3-yl]methoxy]benzoic acid] |
|  | < 1000 | Cc1c(Cl)c(C(F)(F)F)nn1-c1cccc(C(=O)N(C)c2cc3c(cc2C#N)OCO3)c1 [compound 163, 3-[4-chloro-5-methyl-3-(trifluoromethyl)pyrazol-1-yl]-N-(6-cyano-1,3-benzodioxol-5-yl)-N-methyl-benzamide] |
|  | < 1000 | Cc1cc(C2CC2)n(-c2cccc(C(=O)N(C)c3ccc4c(c3)OCO4)c2)n1 [compound 097, N-(1,3-Benzodioxol-5-yl)-3-(5-cyclopropyl-3-methyl-pyrazol-1-yl)-N-methyl-benzamide] |
|  | > 2000 | Cc1cc(C(=O)O)n(-c2cccc(C(=O)N(C)c3ccc4c(c3)OCO4)c2)n1 [compound 065, 2-[3-[1,3-benzodioxol-5-yl(methyl)carbamoyl]phenyl]-5-methyl-pyrazole-3-carboxylic acid] |
